According to publication PMC3071876 (Comparative biochemistry and physiology. Part B, …, 2011):
Where two headings read alike, the source gives them in different places.

Experiments:
[1] = molecular target: T1, zebrafish monoamine oxidase (zMAO) (Danio rerio, UniProt Q6NSN2); assay: Reversible inhibition of zMAO with kynuramine as substrate; assay type: biochemical
T1 sequence (Q6NSN2 1-522): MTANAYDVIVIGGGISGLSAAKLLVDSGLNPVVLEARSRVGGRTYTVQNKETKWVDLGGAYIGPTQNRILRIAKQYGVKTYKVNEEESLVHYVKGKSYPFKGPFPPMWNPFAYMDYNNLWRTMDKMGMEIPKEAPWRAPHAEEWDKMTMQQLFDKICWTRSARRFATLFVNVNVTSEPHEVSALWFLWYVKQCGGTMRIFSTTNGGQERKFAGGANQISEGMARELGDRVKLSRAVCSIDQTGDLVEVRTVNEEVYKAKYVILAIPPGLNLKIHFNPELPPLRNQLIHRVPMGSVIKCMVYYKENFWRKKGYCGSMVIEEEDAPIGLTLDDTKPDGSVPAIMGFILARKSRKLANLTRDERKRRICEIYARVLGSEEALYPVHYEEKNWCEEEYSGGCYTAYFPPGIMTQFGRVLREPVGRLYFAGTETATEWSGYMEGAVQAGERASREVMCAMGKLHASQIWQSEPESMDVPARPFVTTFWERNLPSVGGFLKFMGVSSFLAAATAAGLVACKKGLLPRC

hMAO B [2] = molecular target: T2, hMAO B (Homo sapiens, UniProt P27338); conditions: cited from earlier work
T2 sequence (P27338 1-520): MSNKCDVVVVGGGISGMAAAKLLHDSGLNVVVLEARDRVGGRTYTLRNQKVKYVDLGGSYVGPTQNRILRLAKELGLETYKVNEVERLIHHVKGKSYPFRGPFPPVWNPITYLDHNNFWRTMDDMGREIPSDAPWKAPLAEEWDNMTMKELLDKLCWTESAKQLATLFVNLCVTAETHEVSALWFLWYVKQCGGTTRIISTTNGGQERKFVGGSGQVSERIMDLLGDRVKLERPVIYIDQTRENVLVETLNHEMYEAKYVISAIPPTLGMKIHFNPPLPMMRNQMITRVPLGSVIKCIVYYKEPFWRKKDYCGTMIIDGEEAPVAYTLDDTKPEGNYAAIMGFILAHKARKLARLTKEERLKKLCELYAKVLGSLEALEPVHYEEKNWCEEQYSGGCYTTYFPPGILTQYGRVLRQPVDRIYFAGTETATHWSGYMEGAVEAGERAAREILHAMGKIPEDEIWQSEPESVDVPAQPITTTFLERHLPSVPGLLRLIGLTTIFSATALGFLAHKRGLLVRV

[3] = molecular target: T1, zebrafish monoamine oxidase (zMAO); assay: Steady-state kinetics of zMAO-catalyzed amine substrate oxidation; assay type: biochemical; conditions: for ^Dkcat: deuterium kinetic isotope effect; for kcat (H): air saturation (240 μM O2); for kcat (D): α,α-2[H] benzylamine analogue
hMAO A [4] = molecular target: T3, hMAO A (Homo sapiens, UniProt P21397); conditions: cited from earlier work; for Ki: hMAO A
T3 sequence (P21397 1-527): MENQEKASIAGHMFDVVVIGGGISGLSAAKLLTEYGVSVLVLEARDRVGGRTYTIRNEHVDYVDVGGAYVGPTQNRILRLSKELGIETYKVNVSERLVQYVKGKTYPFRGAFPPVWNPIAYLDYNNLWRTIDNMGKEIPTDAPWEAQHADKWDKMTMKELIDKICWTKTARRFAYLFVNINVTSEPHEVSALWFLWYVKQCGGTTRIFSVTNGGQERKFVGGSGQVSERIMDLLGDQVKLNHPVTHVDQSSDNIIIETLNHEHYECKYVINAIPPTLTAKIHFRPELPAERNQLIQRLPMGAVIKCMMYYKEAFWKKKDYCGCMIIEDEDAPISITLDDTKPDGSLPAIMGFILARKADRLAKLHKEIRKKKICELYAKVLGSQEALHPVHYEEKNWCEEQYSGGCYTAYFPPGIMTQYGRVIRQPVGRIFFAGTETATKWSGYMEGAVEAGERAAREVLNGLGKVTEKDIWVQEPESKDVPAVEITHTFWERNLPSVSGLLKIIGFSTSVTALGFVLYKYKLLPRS

hMAO A [5] = molecular target: T3, hMAO A; conditions: ref Li, cited from earlier work
hMAO B [6] = molecular target: T2, hMAO B; assay: Reversible inhibition of hMAO B; assay type: biochemical; conditions: no reference mark, indole analogues tested up to 100 μM
hMAO B [7] = molecular target: T2, hMAO B; conditions: cited from earlier work; remark: listed apart in the source
[8] = substrate: NCCCCc1ccccc1; assay: Steady-state kinetics of zMAO-catalyzed amine substrate oxidation; assay type: biochemical, Danio rerio; conditions: other: zMAO, 25 °C, pH 7.4
[9] = substrate: NCCc1ccc(O)cc1; assay: as above; assay type: biochemical, Danio rerio; conditions: other: zMAO, 25 °C, pH 7.4
[10] = substrate: NCCC(=O)c1ccccc1N; assay: as above; assay type: biochemical, Danio rerio; conditions: other: zMAO, 25 °C, pH 7.4
[11] = substrate: NCc1ccccc1; assay: as above; assay type: biochemical, Danio rerio; conditions: other: zMAO, para-substituted benzylamine; pH 7.4; 25.0 °C
[12] = substrate: NCCc1ccc(O)c(O)c1; assay: purified protein, by the assay type; conditions: other: zMAO, 25 °C, pH 7.4
[13] = zMAO, hMAO B specific inhibitors (Table 3), kynuramine substrate
[14] = ref Nandigama and Edmondson (2000)
[15] = zMAO, hMAO A specific inhibitors (Table 2), kynuramine substrate
[16] = read-out: Km(H), zMAO, para-substituted benzylamine
[17] = zMAO, para-substituted benzylamine

C(C=Cc1ccccc1)=Cc1ccccc1 [1,4-Diphenyl-1,3-Butadiene]
Ki [1, 13]: No inhibition

C(=CCc1ccccc1)Cc1ccccc1 [1,4-Diphenyl-2-Butene]
Ki [1, 13]: No inhibition

NCc1cccnc1 [3-Aminomethylpyridine]
kcat (hMAO B [2]; ref Li, (2006)): 223 ±5 ^c min^−1
Substrate behaviour ([3]; zMAO): Not a Substrate
Ki (hMAO A [4]; competitive inhibitor, ref Li, (2006)): 5200 µM

Cn1c(=O)c2c(nc(C=Cc3cccc(Cl)c3)n2C)n(C)c1=O [8-(3-Chlorostyryl)-caffeine]
Ki [1]: 2.4 ± 0.6 µM

NCCc1ccc(O)c(O)c1 [Dopamine]
Km (hMAO B [2]; [14]): 128 ± 15 µM
kcat (hMAO B [2]; [14]): 65 ±12 ^b min^−1
kcat ([3]; zMAO, 25 °C, pH 7.4): 4.03 s⁻¹
Km (hMAO A [5]; et al. (2002)): 240 ± 42 µM
kcat (hMAO A [5]; et al. (2002)): 71 ±4 ^a min^−1

CC(C)=CCC/C(C)=C/CC/C(C)=C/CO [Farnesol, trans-trans-farnesol]
Ki [1, 13]: No inhibition

Cc1nccc2c1[nH]c1ccccc12 [Harmane]
Ki [1]: 0.13 ± 0.02 µM

NCCC(=O)c1ccccc1N [Kynuramine]
kcat (hMAO B [2]; [14]): 96 ±11 ^b min^−1
kcat ([3]; zMAO, 25 °C, pH 7.4): 1.25 s⁻¹
kcat (hMAO A [5]; et al. (2002)): 125 ±8 ^a min^−1

CS(=O)(=O)O.Cc1ccc2c(c1)c1c3n2CCNC3CCC1 (stereo not drawn) [Pirlindole Mesylate]
Ki [1, 15]: 2.4 ± 0.4 µM
Ki (hMAO A [4]; ref Wang, et al. (2009)): 0.92 ± 0.04 µM
Ki (hMAO B [6]): No Inhibition

C[C@H](NCc1ccc(OCc2cccc(F)c2)cc1)C(N)=O [Safinamide]
Ki [1, 13]: No inhibition

NCCc1c[nH]c2ccc(O)cc12 [Serotonin]
Km (hMAO B [2]; [14]): 2270 ± 310 µM
Km (hMAO A [5]; et al. (2002)): 295 ± 46 µM

CS(=O)(=O)O.c1cc2c(cc1C1CCCCC1)c1c3n2CCNC3CCC1 (stereo not drawn) [Tetrindole Mesylate]
Ki [1, 15]: 34.1 ± 2 µM
Ki (hMAO A [4]; ref Wang, et al. (2009)): 5.3 ± 0.2 µM
Ki (hMAO B [6]): No Inhibition

NCCc1ccc(O)cc1 [Tyramine]
kcat ([3]; zMAO, 25 °C, pH 7.4): 7.78 s⁻¹
kcat (hMAO A [5]; (2006), listed as tyramine): 182 min⁻¹
Km (hMAO A [5]; (2006)): 427 ± 18 µM
kcat (hMAO A [5]; (2006)): 182 ±26 ^c min^−1

C[C@H](N)Cc1ccccc1 [d-Amphetamine]
Ki (hMAO B [7]; hMAO B, ref Li, (2006)): 280 ± 10 µM
Mode of inhibition (hMAO B [7]; human MAO B, depending on the substrate, ref Pearce and Roth, 1985): either as a competitive or as a mixed inhibitor
Mode of inhibition ([1]; zMAO catalyzed kynuramine oxidation): uncompetitive inhibitor
Ki [1, 15]: 38 ± 5.1 µM
Mode of inhibition (hMAO A [4]; human MAO A, ref Vintém et al., 2005): competitively inhibits

NCc1ccc(Br)cc1 [p-Br]
Km [3, 16]: 103 ± 20 µM
^Dkcat ([3]; zMAO): 8.2 ± 0.7 min⁻¹
kcat (H) [3, 17]: 0.667 ± 0.05 s⁻¹
kcat (D) ([3]; zMAO): 0.0813 ± 0.00283 s⁻¹

NCc1ccc(C(F)(F)F)cc1 [p-CF3]
Km [3, 16]: 115 ± 36 µM
^Dkcat ([3]; zMAO): 4.2 ± 0.3 min⁻¹
kcat (H) [3, 17]: 1.57 ± 0.12 s⁻¹
kcat (D) ([3]; zMAO): 0.375 ± 0.025 s⁻¹

NCc1ccc(Cl)cc1 [p-CI]
Km [3, 16]: 94 ± 10 µM
^Dkcat ([3]; zMAO): 5.9 ± .2 min⁻¹
kcat (H) [3, 17]: 0.583 ± 0.017 s⁻¹
kcat (D) ([3]; zMAO): 0.0983 ± 0.00283 s⁻¹

NCc1ccc(C(=O)O)cc1 [p-Carboxybenzylamine]
Km ([3]; zMAO, 25 °C, pH 7.4): 76 ± 8 µM
kcat ([3]; zMAO, 25 °C, pH 7.4): 0.0883 ± 0.0033 s⁻¹

NCc1ccc(F)cc1 [p-F]
Km [3, 16]: 161 ± 8 µM
^Dkcat ([3]; zMAO): 6.7 ± 0.2 min⁻¹
kcat (H) [3, 17]: 0.248 ± 0.005 s⁻¹
kcat (D) ([3]; zMAO): 0.0372 ± 0.00083 s⁻¹

NCc1ccccc1 [p-H, benzylamine]
Kd [3]: 3.3 µM
^Dkcat ([3]; zMAO): 2.0 ± 0.2 min⁻¹
kcat (D) ([3]; zMAO): 0.039 ± 0.00333 s⁻¹

COc1ccc(CN)cc1 [p-MeO]
Km [3, 16]: 55.5 ± 4.1 µM
^Dkcat ([3]; zMAO): 5.9 ± 0.7 min⁻¹
kcat (H) [3, 17]: 0.138 ± 0.012 s⁻¹
kcat (D) ([3]; zMAO): 0.0237 ± 0.00083 s⁻¹

Cc1ccc(CN)cc1 [p-Me]
Km [3, 16]: 67.8 ± 4.1 µM
^Dkcat ([3]; zMAO): 6.4 ± 0.2 min⁻¹
kcat (H) [3, 17]: 0.115 ± 0.0017 s⁻¹
kcat (D) ([3]; zMAO): 0.018 ± 0.00033 s⁻¹

CC(C)(C)c1ccc(CN)cc1 [p-t-Butyl]
Km [3, 16]: 48 ± 6 µM
^Dkcat ([3]; zMAO): 2.0 ± 0.1 min⁻¹
kcat (H) [3, 17]: 0.115 ± 0.0033 s⁻¹
kcat (D) ([3]; zMAO): 0.0567 ± 0.0033 s⁻¹

B1: zebrafish monoamine oxidase (zMAO) (Danio rerio) (protein)
chain: MTANAYDVIVIGGGISGLSAAKLLVDSGLNPVVLEARSRVGGRTYTVQNKETKWVDLGGAYIGPTQNRILRIAKQYGVKTYKVNEEESLVHYVKGKSYPFKGPFPPMWNPFAYMDYNNLWRTMDKMGMEIPKEAPWRAPHAEEWDKMTMQQLFDKICWTRSARRFATLFVNVNVTSEPHEVSALWFLWYVKQCGGTMRIFSTTNGGQERKFAGGANQISEGMARELGDRVKLSRAVCSIDQTGDLVEVRTVNEEVYKAKYVILAIPPGLNLKIHFNPELPPLRNQLIHRVPMGSVIKCMVYYKENFWRKKGYCGSMVIEEEDAPIGLTLDDTKPDGSVPAIMGFILARKSRKLANLTRDERKRRICEIYARVLGSEEALYPVHYEEKNWCEEEYSGGCYTAYFPPGIMTQFGRVLREPVGRLYFAGTETATEWSGYMEGAVQAGERASREVMCAMGKLHASQIWQSEPESMDVPARPFVTTFWERNLPSVGGFLKFMGVSSFLAAATAAGLVACKKGLLPRC
Km [8]: 185 ± 17 µM
kcat [8]: 2.07 ± 0.0667 s⁻¹
kcat/Km [8]: 11200 M⁻¹ s⁻¹
Km [9]: 18 ± 3 µM
kcat [9]: 7.78 ± 0.333 s⁻¹
Km [10]: 58 ± 5 µM
kcat [10]: 1.25 ± 0.0333 s⁻¹
Km [11]: 82.2 ± 9.0 µM
kcat [11]: 0.0783 ± 0.0017 s⁻¹
Km [12]: 88 ± 14 µM
kcat [12]: 4.03 s⁻¹
